For one data set, the system named is human NT2 cells. Put plainly: MTT assay, glutamate-induced toxicity in NT2 cells. It is filed as cell-based. The note with it: 5 mM glutamate, three days; 1 to 50 μM compound; data not shown.
The next data set addresses Aβ1-42 (Homo sapiens, UniProt P05067). In words: Cholesterol-protein binding blot assay (CPBBA), Aβ1-42. The note with it: for inhibition of binding of radiolabeled 22R-hydroxycholesterol to Aβ1-42: 50 μM Aβ1-42. Here is the method:
At the end of the incubation time, samples were separated by 1.5% agarose (Type I-B) gel electrophoresis and transferred to nitrocellulose membrane (Schleicher & Schuell, Keene, N.H.) in 10×SSC buffer. The membrane was exposed to tritium-sensitive screen and analyzed by phosphoimaging using the Cyclone Storage phosphor system (Packard BioScience, Meridien, Conn.). Image-densitometric analysis was performed using the OptiQuant software (Packard). […] Low molecular weight unincorporated 22i-hydroxycholesterol is separated and eliminated during electrophoresis.
The membrane with the 22R-hydroxycholesterol-Aβ peptide complexes was then used to examine Aβ levels. Membranes were blocked by incubating the nitrocellulose in 5% milk and treated for immunodetection of Aβ using ECL reagents (Amersham-Pharmacia, Piscataway, N.J.). Li et al., Proc. Natl. Acad. Sci. USA, 98, 1267-1272 (2001). Anti-Aβ antibody and secondary antibodies were used at 0.2 μg/ml and 1:5000 dilution, respectively.

The subject of the next data set is PC12 cells. Put plainly: Cellular ATP levels (ATPLite-M) in Aβ-treated PC12 cells. The note with it: 0.1 and 1.0 μM Aβ. Format: cell-based, rat. Here is the method:
PC12 cells (rat pheochromocytoma neurons) from ATCC (Manassas, Va.) were cultured at 37° C. and 5% CO2 in RPMI 1640 medium devoid of glutamine and supplemented with 10% fetal bovine serum and 5% horse serum. Yao Z, Drieu K and Papadopoulos V., The Gingko biloba extract EGb 761 rescues PC12 neuronal cells from β-amyloid-induced cell death by inhibiting the formation of (3-amyloid-derived diffusible neurotoxic ligands, Brain Res, 889, 181-190 (2001). Cells were seeded in 96-well plates (8×10^4 cells/well). After an overnight period of incubation, increasing concentrations of aggregated Aβ (0.1, 1 and 10 μM) were added to the cells in the presence or absence of the indicated concentrations of the SP compounds to be tested. After 72-hours incubation time various parameters, markers of cell viability, were determined. Mouse MA-10 tumor Leydig cells were maintained at 37° C. in DMEM/Ham's F12 (Biofluids, Rockville, Md.) medium supplemented with 5% heat-inactivated fetal calf serum and 2.5% horse serum in 5% CO2. Cells were plated on 96-well plates at the density of 2.5×10^4 cells/well for overnight. The cells were stimulated with the indicated concentrations of the various SP compounds in 0.2 ml/well serum-free medium for 2 hours. The culture medium was collected and tested for progesterone production by radioimmunoassay.
Cellular ATP concentrations were measured using the ATPLite-M™ luminescence assay (Packard BioSciences Co.). For this assay, cells were cultured on black 96-well ViewPlate™ and the ATP concentrations were measured on a TopCount NXT™ counter (Packard BioSciences Co.) following the recommendations of the manufacturer.
A general note: In ATP-based viability assays light output follows the ATP content of the culture.

The target in another data set is T1, Aβ (Homo sapiens, UniProt P05067).
T1 construct: Aβ1-42 peptide was purchased from American Peptide Co; purchased American Peptide Co. (Sunnyvale, Calif.)
In words: CPBBA displacement of radiolabeled 22R-hydroxycholesterol from Aβ (Example II). It is filed as binding. The note with it: 100 μM unlabeled compound; 50 μM Aβ. Here is the method:
At the end of the incubation time, samples were separated by 1.5% agarose (Type I-B) gel electrophoresis under native conditions and transferred to nitrocellulose membrane (Schleicher&Schuell, Keene, N.H.) in 10×SSC buffer. The membrane was exposed to tritium-sensitive screen and analyzed by phosphoimaging using the Cyclone Storage phosphor system (Packard BioScience). Image-densitometric analysis was performed using the OptiQuant software (Packard BioScience). […] Low molecular weight unincorporated 22R-hydroxycholesterol and derivatives are separated and eliminated during electrophoresis.

Data set [1] relates to NT2 cells. In words: Flow cytometry of NT2 cells (cell cycle). Format: cell-based, human. Particulars: 25 μM, 12 days of treatment. Here is the method:
Human NT2 precursor (Ntera2/D 1 teratocarcinoma) cells were obtained from Stratagene (La Jolla, Calif., USA) and cultured following the instructions of the supplier. […] After trypsinization, the cells were collected, suspended (1-2×10^6 cells in 0.1 ml citrate/DMSO solution), stained with a solution containing propidium iodide (50 μg/ml) and RNase (10 μg/ml), and subjected to flow cytometric analysis in an FACS Scan flow cytometer (Becton Dickinson, Menlo Park, Calif., USA) equipped with a Modfit software program (Vindelov et al., Cytometry, 3, 332 (1983)).

For data set [2], the system named is differentiated NT2N neuronal cells. Put plainly: MTT assay, viability of differentiated NT2N neuronal cells. Format: cell-based, human. The text has this:
During CNS development in vivo, cells actively participate in two opposing processes: proliferation and death (Ross, Trends Neurosci., 19, 62 (1996)). In NT2 cells, early programmed cell death (apoptosis) has been associated with the induction of differentiation by RA, it occurs mainly in undifferentiated cells, and it coincides with first detection of the neuronal phenotye (NT2N), i.e., significant apoptotic cell death could be quantified during the third and fourth days of the RA treatment using annexin V labeling as a marker of apoptosis (Guillemain et al., J. Neurosci. Res., 71, 38 (2003)). […] Thus, apoptotic cell death of undifferentiated NT2 cells also occurred during 22R-hydroxycholesterol-induced differentiation.
On the technique in general: Tetrazolium assays rely on reduction of a dye to a coloured formazan, in cell work by metabolically active cells.

The nature of data set [3]: CPBBA with NT2 cell protein. Format: binding, human. The note with it: 3 hours at 37° C.; competition with unlabeled compound. How it is done:
After incubation, samples were separated by 1.0% agarose (Type I-B) gel electrophoresis and transferred to a nitrocellulose membrane (Schleicher & SchueII, Keene, N.H., USA) in 10×saline-sodium citrate (SSC) buffer. The membrane was exposed to a tritium-sensitive screen and analyzed by phosphoimaging using the Cyclone Storage Phosphor System (Packard BioScience, Meridien, Conn., USA). Image-densitometric analyses were performed using the OptiQuant software (Packard). […] Low molecular weight unincorporated 22R-hydroxycholesterol is separated and eliminated during electrophoresis.

Data set [4] has as its system NT2 cells. In words: LDH and MTT assays, NT2 cell viability.

Bounds are passed on as bounds.

Sequence of Aβ1-42 (P05067 672-713): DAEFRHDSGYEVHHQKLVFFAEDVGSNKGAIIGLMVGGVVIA
T1 sequence (P05067 672-713): as above

`CC(C)CC[C@@H](O)[C@@H](C)[C@H]1CC[C@H]2[C@@H]3CC=C4C[C@@H](O)CC[C@]4(C)[C@H]3CC[C@]12C` [SP222, 22R-hydroxycholesterol]: in the data set with human NT2 cells, the “protection against glutamate-induced decrease in cell viability” value is reported as “failed to protect the cells”. The results for the “inhibition of binding of radiolabeled 22R-hydroxycholesterol to Aβ1-42” value on Aβ1-42 (50 μM unlabeled) and at Aβ1-42 (200 μM unlabeled) were 50% and 90%, respectively. Also, the “binding to Aβ1-42” value at Aβ1-42 (CPBBA, native conditions) is “binds”. The “reversal of Aβ-induced decrease in ATP levels” value with PC12 cells is reported as “did not block”. Moreover, the “displacement of radiolabeled 22R-hydroxycholesterol binding to Aβ” value at Aβ worked out at 80%. Besides, the “percentage of cells in the G2/M phase” value in the data set with NT2 cells [1] (from 34.43%) is reported as 15.90%. Also, the “percentage of cells in the G0/G1 phase” value with NT2 cells [1] (from 35.32%) came to 50.34%. The “effect on viability of differentiated NT2N neuronal cells” value in data set [2] is “had no effect”. The “radiolabeling of NT2 cell protein with 3H-22R-hydroxycholesterol” value in data set [3] was “decreased in the presence of increasing concentrations of unlabeled 22R-hydroxycholesterol”. In addition, in the data set on NT2 cells [4] (LDH and MTT, 25-50 μM, 3-day treatment), the “cytotoxicity at high concentrations” value is reported as “cytotoxic”. The “concentration affecting viability of undifferentiated NT2 cells” value in the data set with NT2 cells [4] (MTT) was more than 10 µM.

The values are drawn from patent US20060009433A1, “Neuroprotective spirostenol pharmaceutical compositions” (priority 2003, published 2006).
